According to PMC3506555, “[^11C]phenytoin revisited: synthesis by [^11C]CO carbonylation and first evaluation as a P-gp tracer in rats” (EJNMMI Research, 2012):

Test system: P-gp
Experiment: PET brain time-activity curves (SUV), baseline and after tariquidar P-gp block
Format: in vivo, Sprague–Dawley rats
Description: Following cannulation of the femoral vein, animals were positioned in pairs in a double LSO/LYSO layer high-resolution research tomograph (CTI/Siemens, Knoxville, TN, USA). First, for attenuation and scatter correction purposes, a transmission scan was acquired using a 740-MBq two-dimensional fan-collimated ^137Cs (662 keV) moving point source. Next, a dynamic emission scan was acquired immediately following administration of 17.1 ± 2.1 MBq (mean ± SD) ^11C]phenytoin to each rat. Two animals had one single ^11C]phenytoin scan; two animals had two consecutive scans, and two had three consecutive scans. Finally, all animals underwent an ^18F]FDG scan before being euthanized. Tariquidar, 15 mg·kg^−1, was used to completely block P-gp, while probenecid, 150 mg·kg^−1, was used to inhibit multi-resistant protein (MRP) efflux proteins. Tariquidar and probenecid were administered i.v. 20 min prior to the scan start as a 10-min infusion. All animals, except one, were scanned without any treatment prior to the first ^11C]phenytoin scan. Of the animals that had two scans, one underwent two post-tariquidar scans (animal 4, Table 1). […] Animals that underwent three consecutive scans had one baseline, one post probenecid and one post-tariquidar scan. During each scan, emission data were acquired for 60 min in list mode and rebinned into the following frame sequence: 7 × 10, 1 × 20, 3 × 30, 2 × 60, 2 × 150, 2 × 300 and 4 × 600 s. Following corrections for decay, dead time, attenuation, random and scatter, scans were reconstructed using a 3D ordinary Poisson ordered subsets expectation maximization algorithm. […] PET image data were analyzed using the freely available software package Amide 0.9 [31]. A magnetic resonance (MR)-based rat brain atlas was used to define five regions of interest (ROIs): the hippocampus, occipital cortex, parietal cortex, caudate putamen and cerebellum. The MR atlas including all ROIs was aligned visually with the summed ^18F]FDG image for each rat. ROIs were then projected onto all frames of all ^11C]phenytoin scans, resulting in ^11C]phenytoin time-activity curves for each scan and rat.
During each [^11C]phenytoin scan, arterial blood samples of 0.1 mL were taken at 20 and 40 s and at 1, 2, 5, 15, 30 and 60 min after [^11C]phenytoin injection. For animals that underwent three scans, the amount of blood withdrawn was reduced by replacing the two samples at 15 and 30 min with a single 20-min sample. Plasma was obtained by centrifugation at 4,000 rpm for 5 min at 4°C, and activity in both plasma and whole blood was measured in an automated 1282 Compugamma CS Universal Gamma Counter (LKB Wallac, Turku, Finland), cross-calibrated against the PET scanner. Standardized uptake values (SUVs) as a function of time were derived by normalizing measured radioactivity concentrations against injected dose and body weight.

- Brain SUV at 60 min (corrected for metabolites) (baseline scans): around 0.2
- Maximum brain SUV (baseline scans): around 0.8
- Brain SUV at 60 min (corrected for metabolites) (post-tariquidar scans): ~0.3
- Maximum brain SUV (post-tariquidar scans): ~0.9
- Time of maximum brain concentration after bolus injection (rats): approximately 5 min
- Increase in brain SUV at 10 to 60 min after tariquidar (tariquidar 15 mg·kg^−1, rat, on average): about 50%
Compound: O=C1N[11C](=O)NC1(c1ccccc1)c1ccccc1 [[^11C]phenytoin]
